# Tested on: SpADH2 variants (H43L, A290I, H43L/A290I)
# Assay: Cofactor spectrum (HPLC specific activity), all variants together
# Type: biochemical, Sphingobium sp. SYK-6
# Conditions: 1a 5 mM, cofactor 7.5 mM, pH 7.5, 30℃
# Experimental: Fig. 8 Cofactor spectrums of SpADH2 and its variants. The darkness of color for each cofactor stands for the activity. For each cofactor cube, top left: WT, top right: H43L, bottom left: A290I, bottom right: H43L/A290I. (a) Natural cofactors and NMN^+ are shown in purple. (b) tsNCBs are shown in cyan. The evaluation of cofactor spectrum was carried out under following conditions: 50 mM PBS buffer (pH 7.5) and 30℃, with 1a (5 mM) as substrate and different cofactors (7.5 mM) as cofactor. For NAD(P)^+ and NMN^+, 0.05 µg enzyme was added, and for tsNCBs, 5 µg enzyme was added. The results were analyzed by HPLC after 1 h reaction
# Specific activity of SpADH2 in cofactor spectrum study was determined by HPLC analysis. PBS (pH 7.5) buffer was pre-heated at 30°C for 15 min. For NAD(P)^+ and NMN^+, 0.05 µg SpADH2 was added to PBS buffer (100 µL). For tsNCBs, 5 µg SpADH2 was added. A final concentration of 7.5 mM cofactor was added to the reaction mixture. Finally, a final concentration of 5 mM substrate was added to start the reaction. The reactions were conducted at 30°C.
# One unit of enzyme activity is defined as the amount of enzyme required to form 1 µmol 1b per minute at pH 7.5 and 30°C. Same reaction without cofactor was used as a blank control.
compound,measurement,value
"NC(=O)c1ccc[n+](Cc2ccc(C(=O)O)cc2)c1 [p-BANA^+, para-3-carbamoyl-1-(4-carboxybenzyl)pyridin-1-ium]",catalytic activity of all variants with the cofactor (in words),highest activity
